System: continuously hydrated rats
Experiment: Antidiuresis test in continuously hydrated rats with additional water loading (oral administration)
Format: in vivo, rat
Details: for urine production after additional water loads: groups with additional water loads (15 mL/kg at two and three hours after administration); for urine production after additional water loads / urine production: FIG. 1; for urine production: groups without additional water loads, two hours after administration, maintained until four hours; for change in plasma sodium level (in words): three hours and four hours after administration, additional water loads
Procedure: Male Wistar rats were used in the test. Initially, water load with 15 mL/kg of distilled water was forcedly administered to the rats. Every 30 minutes after loading water, urine volume collected during 30 minutes was measured and distilled water was forcedly administered to the rats in an amount equal to the urine volume excreted during the last 30 minutes. This water load procedure was repeated to the termination of the test to maintain the diuretic state. […] The individual groups were further divided into two subgroups, and additional distilled water of 15 mL/kg load was forcedly administered to one of the subgroups two times, i.e. at two hours and three hours after the administration. For comparison, the Vehicle group administered only with the vehicle was also subjected to the additional administrations of water load. Blood was collected from a half of the rats in each group subjected to additional administrations of water load, at three hours after the administration (immediately before the second additional water load) and from the other half at four hours after the administration, and plasma sodium levels were measured with an automatic electrolyte analyzer to determine the plasma sodium levels at three hours and four hours after the administration, respectively (each group consisted of seven to eight rats). Changes in the urine volume in individual groups are shown in FIG. 1, and the plasma sodium levels of the group administered with additional water loads are shown in Table 4.

| SMILES | urine production after additional water loads | urine production | change in plasma sodium level (in words) |
| --- | --- | --- | --- |
| CC(C)C[C@H](N)[C@](O)(Cc1cc(O[C@H]2CC[C@H](C)CC2)ccn1)C(=O)O (relative stereo) [EX-a] | resumed after administration of the additional water loads | almost stopped | slightly decreased |
| CCSC[C@H](N)[C@](O)(Cc1cc(O[C@H]2CC[C@H](C)CC2)ccn1)C(=O)O [EX-b, (2R,3R)-3-amino-4-(ethylsulfanyl)-2-hydroxy-2-({4-[(trans-4-methylcyclohexyl)oxy]pyridin-2-yl}methyl)butanoic acid] | resumed after administration of the additional water loads | almost stopped | slightly decreased |
| NC(=O)CC[C@@H]1NC(=O)[C@H](Cc2ccccc2)NC(=O)[C@H](Cc2ccc(O)cc2)NC(=O)CCSSC[C@@H](C(=O)N2CCC[C@H]2C(=O)N[C@H](CCCN=C(N)N)C(=O)NCC(N)=O)NC(=O)[C@H](CC(N)=O)NC1=O [dDAVP, Desmopressin, reference compound] | urine production was not resumed | almost stopped | more significant decreases |

— patent US10975091B2, “Pyridine derivative” (Astellas Pharma Inc., priority 2014, dated 2021)
